Test results taken from patent US8067189B2, “Methods for determining sensitivity to vascular endothelial growth factor receptor-2 modulators by measuring the level of collagen type IV” (Bristol-Myers Squibb Company, priority 2005, dated 2011).

Legend:
[1] = tested on: complement component 1, q subcomponent, receptor 1 (C1qR1); assay: Immunohistochemistry of xenograft tumors; type: in vivo, mouse; conditions: treated xenograft tumors relative to un-treated tumors
Protocol: (§1) Tumors were propagated in nude mice as subcutaneous (sc) transplants using L2987 and HCT-116 cancer cell lines. Tumor passage occurred approximately every two to four weeks. Tumors were then allowed to grow to the pre-determined size window (100-200 mm^3, tumors outside the range were excluded) and animals were evenly distributed to various treatment and control groups. Animals were treated with the example VEGFR-2 inhibitor (100 mg/kg 1 qd×14 days). Treated animals were checked daily for treatment related toxicity/mortality. Each group of animals was weighed before the initiation of treatment (Wt1) and then again following the last treatment dose (Wt2). The difference in body weight (Wt2−Wt1) provided a measure of treatment-related toxicity. Tumor response was determined by measurement of tumors with a caliper twice a week, until the tumors reached a predetermined target size. Animals that were distributed to various treatment and control groups during the study were eventually sacrificed to obtain tumor and blood samples for genomic and protein analysis.
(§2) Tissue specimens collected for IHC were fixed by using 10% formalin. After fixation, the chemical fixative was discarded and the specimens were submerged in 70% ethanol before being embedded in paraffin blocks. Five micron tissue sections were cut from each block and placed on positively charged microscope slides. The tissue slides were de-paraffined by immersing in xylene. The slides were re-hydrated in 100% ethanol, 95% ethanol, and 70% ethanol. After re-hydration, the slides were washed several times with deionized water at room temperature. Multiple antigen retrieval conditions (Citra, Citra Plus, and AR10) were tested by use of the BioGenex EZ-retriever microwave to determine the best conditions. Staining optimization was performed in an automated BioGenex i6000 IHC system for each of the candidate marker antibodies independently. Both treated and un-treated xenografts were stained in the same run to minimize slide to slide variations. […]

[2] = tested on: angiotensin receptor-like 1 (AGTRL1); assay: Immunohistochemistry of xenograft tumors; type: in vivo, mouse; conditions: treated xenograft tumors relative to un-treated tumors
Protocol: as §1, §2

[3] = tested on: Collagen type IV (COL4A1); assay: Immunohistochemistry of xenograft tumors; type: in vivo, mouse; conditions: treated xenograft tumors relative to un-treated tumors
Protocol: as §1, §2

[4] = tested on: VEGFR-2 co-expressed biomarkers (mRNA levels in xenograft tumors); assay: Gene expression profiling (Affymetrix mouse 430A arrays) of un-treated vs treated xenograft tumors; type: in vivo
Protocol: as §1
The colon tumor samples obtained from cancer patients were snap frozen in liquid nitrogen within 20 minutes of resection and stored thereafter at −80° C. The mouse xenograft tumor samples were split into two halves. One half was mixed in a vial of 10% formalin to be used for IHC and the other half was mixed in 1.0 ml of RNAlater™ RNA Stabilization Reagent (Ambion, Inc., Austin, Tex.) held at room temperature for 30 minutes then stored at −80° C. Total RNA was extracted from the tumor samples using the RNeasy Kit™ (Qiagen, Valencia Calif.). At least 1 μg total RNA with a 260/280 ratio ≧1.8 by spectrophotometry (DU640 UV, Beckman Coulter, Fullerton, Calif.) was required for transcriptional profiling. Briefly, the tumor samples were homogenized in a lysis-binding solution supplied by Qiagen. An equal volume of ethanol was mixed into each sample, the mixture was passed through the filter cartridges provided, and the rest of the extraction protocol was followed (Ambion). RNA yield and quality were assessed on a standard 1% agarose gel. A ratio 28 s/18 s RNA in the range of 1.5 to 2.5 indicated high quality RNA that is free of degradation. RNA samples were stored at −80° C.
Transcriptional profiling was performed on the RNA obtained from the tumor samples. The Affymetrix GeneChip system (Affymetrix, Santa Clara, Calif.) was used for hybridization and scanning of the human U133A and mouse 430A arrays. Data were preprocessed using the MAS 5.0 software. Generation of cRNA followed a standard T7 amplification protocol. Total RNA was reverse-transcribed with SuperScript II (Gibco, Carlsbad, Calif.) in the presence of T7-(dT)24 primer to generate first strand cDNA. A second-strand cDNA synthesis was performed in the presence of DNA Polymerase I, DNA ligase, and RNase H (Gibco). The resulting double-stranded cDNA was blunt-ended using T4 DNA polymerase. This double-stranded cDNA was then transcribed into cRNA in the presence of biotin-ribonucleotides using the BioArray High Yield RNA transcript labeling kit (Enzo Life Sciences, Farmingdale, N.Y.). The amplified, biotin-labeled cRNA was purified using Qiagen RNeasy columns (Qiagen Sciences), quantified and fragmented at 94° C. for 35 minutes in the presence of fragmentation buffer (1×). Fragmented cRNA was hybridized to the Affymetrix U113A and 430A arrays overnight at 42° C. The arrays were then placed in the fluidics stations for staining and washing as recommended by Affymetrix protocols. The chips were scanned and raw intensity values were generated for each probe on the arrays.
The 94 co-expressed VEGFR-2 genes identified from human cancers profiled on U133A arrays were used to identify their corresponding mouse homolog from mouse xenografts tumors profiled on mouse 430A arrays. […]

With `Cc1cc2c(F)c(Oc3ncnn4cc(OC[C@@H](C)OC(=O)[C@H](C)N)c(C)c34)ccc2[nH]1` [example VEGFR-2 inhibitor, [(1R),2S]-2-Aminopropionic acid 2-[4-(4-fluoro-2-methyl-1H-indol-5-yloxy)-5-methylpyrrolo[2,1-f][1,2,4]triazin-6-yloxy]-1-methylethyl ester] the “IHC staining of C1qR1 around tumor blood vessels following treatment” value [1] was “negative or lesser degree of staining”, the “IHC staining of angiotensin receptor-like 1 (AGTRL1) around tumor blood vessels following treatment” value [2] was “negative or lesser degree of staining” and the “IHC staining of Collagen type IV (COL4A1) around tumor blood vessels following treatment” value [3] was “negative or lesser degree of staining”. The “fold-change mRNA, Tie1” value ([4]; mouse 430A probe 1416238_at, 100 mg/kg 1 qd×14 days, t-test P 0.00103262) was 11, the “fold-change mRNA, endoglin (Eng)” value ([4]; mouse 430A probe 1417271_a_at, 100 mg/kg 1 qd×14 days, t-test P 0.021873085) was 2 and the “fold-change mRNA, Prg1” value ([4]; mouse 430A probe 1417426_at, 100 mg/kg 1 qd×14 days, t-test P 0.034821585) was 2. The “fold-change mRNA, Eltd1” value ([4]; mouse 430A probe 1418059_at, 100 mg/kg 1 qd×14 days, t-test P 0.018655985) was 2, the “direction of change in mRNA levels, Tek” value ([4]; mouse 430A probe 1418788_at) was “no” and the “fold-change mRNA, Tek” value ([4]; mouse 430A probe 1418788_at, 100 mg/kg 1 qd×14 days, t-test P 0.047098006) was 1. The “direction of change in mRNA levels, S100a8” value ([4]; mouse 430A probe 1419394_s_at) was “no”, the “fold-change mRNA, S100a8” value ([4]; mouse 430A probe 1419394_s_at, 100 mg/kg 1 qd×14 days, t-test P 0.040857487) was 1 and the “fold-change mRNA, C1qr1 (Ly68)” value ([4]; mouse 430A probe 1419589_at, 100 mg/kg 1 qd×14 days, t-test P 0.000005) was 5. For the same compound, the “fold-change mRNA, Agtrl1” value ([4]; mouse 430A probe 1423037_at, 100 mg/kg 1 qd×14 days, t-test P 5.54812E−04) was 4, the “fold-change mRNA, nidogen 2 (Nid2)” value ([4]; mouse 430A probe 1423516_a_at, 100 mg/kg 1 qd×14 days, t-test P 0.024126268) was 3 and the “direction of change in mRNA levels, Col16a1” value ([4]; mouse 430A probe 1427986_a_at) was “no”. For the same compound, the “fold-change mRNA, Col4a1” value ([4]; mouse 430A probe 1427986_a_at, 100 mg/kg 1 qd×14 days, t-test P 0.000014) was 4, the “fold-change mRNA, Col16a1” value ([4]; mouse 430A probe 1427986_a_at, 100 mg/kg 1 qd×14 days, t-test P 0.014896833) was 1 and the “fold-change mRNA, VE-Cadherin (Cdh5)” value ([4]; mouse 430A probe 1433956_at, 100 mg/kg 1 qd×14 days, t-test P 0.001154369) was 2. The “direction of change in mRNA levels, Pkig” value ([4]; mouse 430A probe 1434820_s_at) was “no”, the “fold-change mRNA, Pkig” value ([4]; mouse 430A probe 1434820_s_at, 100 mg/kg 1 qd×14 days, t-test P 0.032286798) was 1 and the “fold-change mRNA, Agtrl1” value ([4]; mouse 430A probe 1438651_a_at, 100 mg/kg 1 qd×14 days, t-test P 0.026038828) was 2. For the same compound, the “fold-change mRNA, Gng11” value ([4]; mouse 430A probe 1448942_at, 100 mg/kg 1 qd×14 days, t-test P 0.001326667) was 2, the “direction of change in mRNA levels, Cav1” value ([4]; mouse 430A probe 1449145_a_at) was “no” and the “fold-change mRNA, Cav1” value ([4]; mouse 430A probe 1449145_a_at, 100 mg/kg 1 qd×14 days, t-test P 2.72030E−04) was 1. For the same compound, the “direction of change in mRNA levels, Pde1a” value ([4]; mouse 430A probe 1449298_a_at) was “no”, the “fold-change mRNA, Pde1a” value ([4]; mouse 430A probe 1449298_a_at, 100 mg/kg 1 qd×14 days, t-test P 0.025570996) was 1 and the “fold-change mRNA, Col4a1” value ([4]; mouse 430A probe 1452035_at, 100 mg/kg 1 qd×14 days, t-test P 0.000018) was 6.
